Laboratory results published in patent US8946147B2 (priority 2010, dated 2015).
Where “and” joins values, the source holds several entries; their conditions need not be identical. Equal values may be shown once. Positions of bridges follow the written chain, without caps; N, C: chain ends. Non-standard residues stand in square brackets, D forms with d. Residues, ends and D or L forms follow the SMILES beside them. Chains are numbered I, II in the order given. *: point of attachment. Phe(4-NH2) = Nc1ccc(C[C@H](N)C(=O)O)cc1; X1 = NOCC(=O)*

Assays:
human insulin receptor = molecular target: T1, human insulin receptor (Homo sapiens, UniProt P06213); experiment: Insulin receptor binding assay (scintillation proximity competition); settings: for % Activity of Insulin: Table 3A, in vitro binding
T1 construct: expressed in transfected cells; plasma membrane fragments
T1 sequence (P06213 28-758 limits assumed): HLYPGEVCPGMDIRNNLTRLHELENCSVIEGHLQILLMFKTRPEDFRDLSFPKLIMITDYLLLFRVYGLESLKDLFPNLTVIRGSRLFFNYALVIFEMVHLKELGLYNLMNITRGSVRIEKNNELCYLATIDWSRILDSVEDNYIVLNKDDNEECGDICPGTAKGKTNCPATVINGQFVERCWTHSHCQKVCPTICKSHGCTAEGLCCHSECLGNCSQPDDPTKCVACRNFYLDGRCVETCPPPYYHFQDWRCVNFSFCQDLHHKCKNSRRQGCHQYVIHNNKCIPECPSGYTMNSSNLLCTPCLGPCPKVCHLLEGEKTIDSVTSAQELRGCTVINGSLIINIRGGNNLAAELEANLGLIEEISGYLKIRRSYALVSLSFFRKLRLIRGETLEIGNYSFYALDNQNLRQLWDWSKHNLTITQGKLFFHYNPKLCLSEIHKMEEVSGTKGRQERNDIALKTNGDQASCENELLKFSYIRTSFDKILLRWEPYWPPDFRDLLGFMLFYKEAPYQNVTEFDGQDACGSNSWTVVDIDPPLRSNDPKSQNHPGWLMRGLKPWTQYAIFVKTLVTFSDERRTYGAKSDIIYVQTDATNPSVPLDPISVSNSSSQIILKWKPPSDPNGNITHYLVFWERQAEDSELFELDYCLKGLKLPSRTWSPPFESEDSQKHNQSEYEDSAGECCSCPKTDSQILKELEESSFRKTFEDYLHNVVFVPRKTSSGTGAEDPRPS
T1 sequence (P06213 763-1382 partner limits assumed): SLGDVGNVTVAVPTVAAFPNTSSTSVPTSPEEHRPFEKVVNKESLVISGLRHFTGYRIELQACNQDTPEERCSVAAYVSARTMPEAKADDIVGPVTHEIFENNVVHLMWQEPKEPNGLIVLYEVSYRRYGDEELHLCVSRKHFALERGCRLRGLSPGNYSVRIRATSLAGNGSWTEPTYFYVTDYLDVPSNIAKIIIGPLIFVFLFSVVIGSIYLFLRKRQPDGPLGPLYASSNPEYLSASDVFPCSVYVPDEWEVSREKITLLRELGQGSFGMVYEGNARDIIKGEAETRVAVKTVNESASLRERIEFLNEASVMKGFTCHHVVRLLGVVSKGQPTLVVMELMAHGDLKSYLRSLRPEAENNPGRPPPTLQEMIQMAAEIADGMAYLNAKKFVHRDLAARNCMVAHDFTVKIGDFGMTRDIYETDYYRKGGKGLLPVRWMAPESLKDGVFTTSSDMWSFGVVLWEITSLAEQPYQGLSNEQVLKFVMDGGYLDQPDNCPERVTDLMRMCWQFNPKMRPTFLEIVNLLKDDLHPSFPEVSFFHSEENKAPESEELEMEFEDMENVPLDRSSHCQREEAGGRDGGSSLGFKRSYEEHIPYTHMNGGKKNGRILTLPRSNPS

IGF-1 Receptor [1] = molecular target: T2, IGF-1 Receptor (Homo sapiens, UniProt P08069); experiment: IGF-1 receptor binding assay (scintillation proximity competition); parameters: expressed in transfected cells; plasma membrane fragments; settings: Table 9
T2 sequence (P08069 31-736 limits assumed): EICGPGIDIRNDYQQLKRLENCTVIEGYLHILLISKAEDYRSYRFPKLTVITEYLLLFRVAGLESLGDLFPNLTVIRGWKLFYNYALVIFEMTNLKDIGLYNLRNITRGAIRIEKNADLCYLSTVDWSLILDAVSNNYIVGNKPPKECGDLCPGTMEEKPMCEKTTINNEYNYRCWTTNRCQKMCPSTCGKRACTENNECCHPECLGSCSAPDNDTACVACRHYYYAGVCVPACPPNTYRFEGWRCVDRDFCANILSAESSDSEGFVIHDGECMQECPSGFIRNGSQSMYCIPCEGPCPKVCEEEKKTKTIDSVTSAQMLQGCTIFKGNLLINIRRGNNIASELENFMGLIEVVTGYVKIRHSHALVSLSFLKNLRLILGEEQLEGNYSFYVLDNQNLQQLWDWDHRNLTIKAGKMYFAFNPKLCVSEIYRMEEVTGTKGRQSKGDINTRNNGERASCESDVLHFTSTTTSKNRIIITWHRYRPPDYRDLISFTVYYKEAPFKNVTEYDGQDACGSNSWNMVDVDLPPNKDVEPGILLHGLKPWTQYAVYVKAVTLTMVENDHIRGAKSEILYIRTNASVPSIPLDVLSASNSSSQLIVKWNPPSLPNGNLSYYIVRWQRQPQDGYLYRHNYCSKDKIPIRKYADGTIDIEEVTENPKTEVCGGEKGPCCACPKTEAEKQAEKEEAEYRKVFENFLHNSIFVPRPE
T2 sequence (P08069 741-1367 partner limits assumed): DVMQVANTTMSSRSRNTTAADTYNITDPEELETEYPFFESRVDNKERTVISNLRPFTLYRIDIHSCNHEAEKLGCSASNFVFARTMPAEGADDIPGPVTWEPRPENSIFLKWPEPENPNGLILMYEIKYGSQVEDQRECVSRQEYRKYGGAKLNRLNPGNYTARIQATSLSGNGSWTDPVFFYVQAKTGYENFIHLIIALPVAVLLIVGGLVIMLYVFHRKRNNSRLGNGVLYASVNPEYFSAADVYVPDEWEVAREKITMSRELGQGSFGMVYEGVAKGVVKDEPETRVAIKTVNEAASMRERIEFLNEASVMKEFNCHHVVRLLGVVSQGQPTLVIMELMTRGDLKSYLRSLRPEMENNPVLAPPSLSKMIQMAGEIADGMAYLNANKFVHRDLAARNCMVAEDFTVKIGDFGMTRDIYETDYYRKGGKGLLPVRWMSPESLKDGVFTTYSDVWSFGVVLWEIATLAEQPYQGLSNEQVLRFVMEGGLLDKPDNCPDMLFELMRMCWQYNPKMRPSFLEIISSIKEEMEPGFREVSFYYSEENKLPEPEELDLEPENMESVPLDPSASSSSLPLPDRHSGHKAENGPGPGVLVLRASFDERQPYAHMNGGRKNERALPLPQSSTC

IGF-1 Receptor [2] = molecular target: T2, IGF-1 Receptor; experiment: IGF-1 receptor phosphorylation assay; format: cell-based; parameters: expressed in transfected cells; host or cells: HEK293; settings: Table 10
[3] = molecular target: T3, insulin receptor (receptor transfected HEK293 cells) (Homo sapiens, UniProt P06213); experiment: Insulin receptor phosphorylation assay; format: cell-based; settings: for % Activity of Insulin: Table 3B, in vitro phosphorylation
T3 construct: expressed in transfected cells; host or cells: HEK293
T3 sequence (P06213 28-758 limits assumed): as the sequence (P06213 28-758 limits assumed) above
T3 sequence (P06213 763-1382 partner limits assumed): as the sequence (P06213 763-1382 partner limits assumed) above

C57/Blk mice = experiment: Comparative insulin tolerance test (blood glucose lowering) in mice; format: in vivo; settings: C57 black mice
Excerpt: […]. […] […]. These in vivo results are consistent with the in vitro analysis.
[…]. […] […].

[4] = molecular target: insulin B subtype receptor (IR-B) (Homo sapiens, UniProt P06213); experiment: Phosphorylation assay at insulin B subtype receptor; settings: Table 14
Sequence of insulin B subtype receptor (IR-B) (P06213 28-758 limits assumed): as the sequence (P06213 28-758 limits assumed) above
Sequence of insulin B subtype receptor (IR-B) (P06213 763-1382 partner limits assumed): as the sequence (P06213 763-1382 partner limits assumed) above

[5] = molecular target: insulin A subtype receptor (IR-A) (Homo sapiens, UniProt P06213); experiment: Phosphorylation assay at insulin A subtype receptor; settings: Table 14
Sequence of insulin A subtype receptor (IR-A) (P06213 28-1370 isoform P06213-2 limits assumed): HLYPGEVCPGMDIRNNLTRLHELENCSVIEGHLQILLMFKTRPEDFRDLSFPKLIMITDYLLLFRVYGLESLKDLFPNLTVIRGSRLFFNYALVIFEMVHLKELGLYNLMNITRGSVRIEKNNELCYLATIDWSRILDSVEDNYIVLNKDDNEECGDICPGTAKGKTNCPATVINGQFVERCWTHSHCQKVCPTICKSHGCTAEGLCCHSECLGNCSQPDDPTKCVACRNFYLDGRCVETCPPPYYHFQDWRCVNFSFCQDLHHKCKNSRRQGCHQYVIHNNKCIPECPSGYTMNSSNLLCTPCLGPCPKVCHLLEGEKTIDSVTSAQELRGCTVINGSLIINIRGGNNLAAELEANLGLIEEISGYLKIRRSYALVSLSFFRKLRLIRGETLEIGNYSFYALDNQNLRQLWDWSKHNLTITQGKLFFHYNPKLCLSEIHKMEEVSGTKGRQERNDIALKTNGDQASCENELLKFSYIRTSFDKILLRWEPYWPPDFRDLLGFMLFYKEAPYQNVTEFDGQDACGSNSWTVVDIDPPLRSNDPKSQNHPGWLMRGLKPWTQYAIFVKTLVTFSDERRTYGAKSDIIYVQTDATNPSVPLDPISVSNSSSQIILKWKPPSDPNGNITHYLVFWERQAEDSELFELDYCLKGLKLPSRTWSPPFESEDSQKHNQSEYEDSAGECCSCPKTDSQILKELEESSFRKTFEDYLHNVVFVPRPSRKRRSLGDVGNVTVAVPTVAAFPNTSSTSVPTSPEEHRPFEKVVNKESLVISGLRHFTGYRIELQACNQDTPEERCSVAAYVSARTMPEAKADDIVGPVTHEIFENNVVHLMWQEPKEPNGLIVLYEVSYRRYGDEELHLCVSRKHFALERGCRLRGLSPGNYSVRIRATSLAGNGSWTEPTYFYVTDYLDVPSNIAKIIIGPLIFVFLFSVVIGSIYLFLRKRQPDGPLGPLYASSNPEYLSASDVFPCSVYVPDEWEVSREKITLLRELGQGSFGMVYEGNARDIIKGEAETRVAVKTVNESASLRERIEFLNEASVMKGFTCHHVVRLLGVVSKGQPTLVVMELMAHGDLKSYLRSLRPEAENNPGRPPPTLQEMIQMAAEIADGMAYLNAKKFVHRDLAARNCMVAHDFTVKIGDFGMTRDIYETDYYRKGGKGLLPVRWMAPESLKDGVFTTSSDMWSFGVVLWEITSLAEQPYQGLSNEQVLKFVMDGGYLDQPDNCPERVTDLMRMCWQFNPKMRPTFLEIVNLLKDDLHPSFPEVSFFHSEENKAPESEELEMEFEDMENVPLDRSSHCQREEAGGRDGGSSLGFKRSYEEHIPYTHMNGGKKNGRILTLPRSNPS
Sequence of insulin A subtype receptor (IR-A) (P06213 763-1382 partner limits assumed): as the sequence (P06213 763-1382 partner limits assumed) above

CC[C@H](C)[C@H](NC(=O)CN)C(=O)N[C@H](C(=O)N[C@@H](CC(=O)O)C(=O)N[C@@H](CCC(=O)O)C(=O)N[C@H]1CSSC[C@@H]2NC(=O)[C@H](CO)NC(=O)[C@H](C)NC(=O)[C@H](Cc3c[nH]cn3)NC(=O)[C@H](CSSC[C@H](NC(=O)[C@H](CC(C)C)NC(=O)[C@H](Cc3c[nH]cn3)NC(=O)[C@H](CCC(=O)O)NC(=O)[C@@H]3CCCN3C(=O)CN)C(=O)NCC(=O)N[C@@H](C)C(=O)N[C@@H](CC(=O)O)C(=O)N[C@@H](CC(C)C)C(=O)N[C@@H](C(C)C)C(=O)N[C@@H](CC(=O)O)C(=O)N[C@@H](C)C(=O)N[C@@H](CC(C)C)C(=O)N[C@@H](Cc3ccc(O)cc3)C(=O)N[C@@H](CC(C)C)C(=O)N[C@@H](C(C)C)C(=O)N[C@H](C(=O)NCC(=O)N[C@@H](CC(=O)O)C(=O)N[C@@H](C)C(=O)NCC(=O)N[C@@H](Cc3ccccc3)C(=O)N[C@@H](Cc3ccc(O)cc3)C(N)=O)CSSC[C@@H](C(=O)N[C@@H](CC(N)=O)C(=O)O)NC(=O)[C@H](Cc3ccc(O)cc3)NC(=O)[C@H](CC[S+](C)[O-])NC(=O)[C@H](CCC(=O)O)NC(=O)[C@H](CC(C)C)NC(=O)[C@H](CCCNC(=N)N)NC(=O)[C@H](CCCNC(=N)N)NC(=O)[C@H](CC(C)C)NC(=O)[C@H](CC(=O)O)NC2=O)NC1=O)C(C)C (stereo partly shown)
Insulin Receptor % insulin (in test) (human insulin receptor; Table 9): 400.7%

CC[C@H](C)[C@H](NC(=O)CN)C(=O)N[C@H](C(=O)N[C@@H](CC(=O)O)C(=O)N[C@@H](CCC(=O)O)C(=O)N[C@H]1CSSC[C@@H]2NC(=O)[C@H](CO)NC(=O)[C@H](C)NC(=O)[C@H](Cc3c[nH]cn3)NC(=O)[C@H](CSSC[C@H](NC(=O)[C@H](CC(C)C)NC(=O)[C@H](Cc3c[nH]cn3)NC(=O)[C@H](CCC(=O)O)NC(=O)[C@@H]3CCCN3C(=O)CN)C(=O)NCC(=O)N[C@@H](C)C(=O)N[C@@H](CC(=O)O)C(=O)N[C@@H](CC(C)C)C(=O)N[C@@H](C(C)C)C(=O)N[C@@H](CC(=O)O)C(=O)N[C@@H](C)C(=O)N[C@@H](CC(C)C)C(=O)N[C@@H](Cc3ccc(O)cc3)C(=O)N[C@@H](CC(C)C)C(=O)N[C@@H](C(C)C)C(=O)N[C@H](C(=O)NCC(=O)N[C@@H](CC(=O)O)C(=O)N[C@@H](CCCNC(=N)N)C(=O)NCC(=O)N[C@@H](Cc3ccccc3)C(=O)N[C@@H](Cc3ccc(O)cc3)C(N)=O)CSSC[C@@H](C(=O)N[C@@H](CC(N)=O)C(=O)O)NC(=O)[C@H](Cc3ccc(O)cc3)NC(=O)[C@H](CCSC)NC(=O)[C@H](CCC(=O)O)NC(=O)[C@H](CC(C)C)NC(=O)[C@H](CCCNC(=N)N)NC(=O)[C@H](CCCNC(=N)N)NC(=O)[C@H](CC(C)C)NC(=O)[C@H](CC(=O)O)NC2=O)NC1=O)C(C)C
IGF-1 Receptor % IGF-1 (in test) (IGF-1 Receptor [1]): 12.9% | IGF-1 Receptor % IGF (IGF-1 Receptor [2]): 181.395% | Ratio (human insulin receptor; Table 9, IGF-1 receptor IC50 / insulin receptor IC50): 80.6 | Insulin Receptor % Insulin ([3]; Table 10, listed as IGF-1 A (H8 A9 N21) B (H5D10Y16L17) DPI A-COOH): 840% and 1080%

CC[C@H](C)[C@H](NC(=O)CN)C(=O)N[C@H](C(=O)N[C@@H](CC(=O)O)C(=O)N[C@@H](CCC(=O)O)C(=O)N[C@@H](C)C(=O)N[C@@H](C)C(=O)N[C@@H](Cc1ccccc1)C(=O)N[C@@H](CCCNC(=N)N)C(=O)N[C@@H](CO)C(=O)N[C@@H](C)C(=O)N[C@@H](CC(=O)O)C(=O)N[C@@H](CC(C)C)C(=O)N[C@@H](CCCNC(=N)N)C(=O)N[C@@H](CCCNC(=N)N)C(=O)N[C@@H](CC(C)C)C(=O)N[C@@H](CCC(=O)O)C(=O)N[C@@H](CCSC)C(=O)N[C@@H](Cc1ccc(NC(=O)[C@@H]2CCCN2C(=O)C(C)(C)N)cc1)C(=O)N[C@@H](C)C(=O)N[C@@H](C)C(N)=O)C(C)C [Aib Pro] (HELM PEPTIDE1{G.I.V.D.E.A.A.F.R.S.A.D.L.R.R.L.E.M.[O=C([C@H](Cc1ccc(N[*:3])cc1)N[*:1])[*:2]].A.A.[am]}|PEPTIDE2{[Aib].P}$PEPTIDE1,PEPTIDE2,19:R3-2:R2$$$V2.0)
Half Life, 20% Plasma/PBS: 2.1 h

CC[C@H](C)[C@H](NC(=O)CN)C(=O)N[C@H](C(=O)N[C@@H](CC(=O)O)C(=O)N[C@@H](CCC(=O)O)C(=O)N[C@@H](C)C(=O)N[C@@H](C)C(=O)N[C@@H](Cc1ccccc1)C(=O)N[C@@H](CCCNC(=N)N)C(=O)N[C@@H](CO)C(=O)N[C@@H](C)C(=O)N[C@@H](CC(=O)O)C(=O)N[C@@H](CC(C)C)C(=O)N[C@@H](CCCNC(=N)N)C(=O)N[C@@H](CCCNC(=N)N)C(=O)N[C@@H](CC(C)C)C(=O)N[C@@H](CCC(=O)O)C(=O)N[C@@H](CCSC)C(=O)N[C@@H](Cc1ccc(NC(=O)[C@H]2CCCN2C(=O)C(C)(C)N)cc1)C(=O)N[C@@H](C)C(=O)N[C@@H](C)C(N)=O)C(C)C [Aib dPro] (HELM PEPTIDE1{G.I.V.D.E.A.A.F.R.S.A.D.L.R.R.L.E.M.[O=C([C@H](Cc1ccc(N[*:3])cc1)N[*:1])[*:2]].A.A.[am]}|PEPTIDE2{[Aib].[dP]}$PEPTIDE1,PEPTIDE2,19:R3-2:R2$$$V2.0)
Half Life, 20% Plasma/PBS: 2.2 h

CC[C@H](C)[C@H](NC(=O)CNC(=O)[C@@H]1CCCN1C(=O)[C@H](C)N)C(=O)N[C@H](C(=O)N[C@@H](CC(=O)O)C(=O)N[C@@H](CCC(=O)O)C(=O)N[C@H]1CSSC[C@@H]2NC(=O)[C@H](CO)NC(=O)[C@H](CCCNC(=N)N)NC(=O)[C@H](Cc3ccccc3)NC(=O)[C@H](CSSC[C@H](NC(=O)[C@H](CC(C)C)NC(=O)[C@@H](NC(=O)[C@H](CCC(=O)O)NC(=O)[C@@H]3CCCN3C(=O)CN)[C@@H](C)O)C(=O)NCC(=O)N[C@@H](C)C(=O)N[C@@H](CCC(=O)O)C(=O)N[C@@H](CC(C)C)C(=O)N[C@@H](C(C)C)C(=O)N[C@@H](CC(=O)O)C(=O)N[C@@H](C)C(=O)N[C@@H](CC(C)C)C(=O)N[C@@H](Cc3ccc(O)cc3)C(=O)N[C@@H](CC(C)C)C(=O)N[C@@H](C(C)C)C(=O)N[C@H](C(=O)NCC(=O)N[C@@H](CC(=O)O)C(=O)N[C@@H](CCCNC(=N)N)C(=O)NCC(=O)N[C@@H](Cc3ccccc3)C(=O)N[C@@H](Cc3ccc(O)cc3)C(=O)N[C@@H](Cc3ccccc3)C(=O)N[C@@H](CC(N)=O)C(=O)N[C@@H](CCCCN)C(=O)N3CCC[C@H]3C(=O)N[C@H](C(N)=O)[C@@H](C)O)CSSC[C@@H](C(=O)N[C@@H](C)C(N)=O)NC(=O)[C@H](Cc3ccc(O)cc3)NC(=O)[C@H](CCSC)NC(=O)[C@H](CCC(=O)O)NC(=O)[C@H](CC(C)C)NC(=O)[C@H](CCCNC(=N)N)NC(=O)[C@H](CCCNC(=N)N)NC(=O)[C@H](CC(C)C)NC(=O)[C@H](CC(=O)O)NC2=O)NC1=O)C(C)C [IGF1(YL)A-1, 0^B16, 17(AlaPro)]
% of Insulin Activity (human insulin receptor; Table 8): 37.12% | insulin receptor binding (in words) (human insulin receptor; relative to native insulin): substantially reduced affinity for the insulin receptor

CC[C@H](C)[C@H](NC(=O)CN)C(=O)N[C@H](C(=O)N[C@@H](CC(=O)O)C(=O)N[C@@H](CCC(=O)O)C(=O)N[C@@H](C)C(=O)N[C@@H](C)C(=O)N[C@@H](Cc1ccccc1)C(=O)N[C@@H](CCCNC(=N)N)C(=O)N[C@@H](CO)C(=O)N[C@@H](C)C(=O)N[C@@H](CC(=O)O)C(=O)N[C@@H](CC(C)C)C(=O)N[C@@H](CCCNC(=N)N)C(=O)N[C@@H](CCCNC(=N)N)C(=O)N[C@@H](CC(C)C)C(=O)N[C@@H](CCC(=O)O)C(=O)N[C@@H](CCSC)C(=O)N[C@@H](Cc1ccc(NC(=O)CN(C)C(=O)[C@@H](N)CCCCN)cc1)C(=O)N[C@@H](C)C(=O)N[C@@H](C)C(N)=O)C(C)C [K Sar] (HELM PEPTIDE1{G.I.V.D.E.A.A.F.R.S.A.D.L.R.R.L.E.M.[O=C([C@H](Cc1ccc(N[*:3])cc1)N[*:1])[*:2]].A.A.[am]}|PEPTIDE2{K.[Sar]}$PEPTIDE1,PEPTIDE2,19:R3-2:R2$$$V2.0)
Half Life, 20% Plasma/PBS: 5.9 h

B^1(Y16,L17,Y25)29a: A^1(dLys(Ac),Sar-aF19) [MIU30]
% Activity of Insulin (human insulin receptor; incubated 0 hr in 20% plasma/PBS at 37° C.): 34.44% | % Activity of Insulin (human insulin receptor; incubated 9 hr in 20% plasma/PBS at 37° C.): 100.09% | % Activity of Insulin (human insulin receptor; incubated 95 hr in 20% plasma/PBS at 37° C.): 115.42% | % Activity of Insulin ([3]; incubated 1 hr in 20% plasma): 23.0% | % Activity of Insulin ([3]; incubated 3 hr in 20% plasma): 26.8% | % Activity of Insulin ([3]; incubated 6 hr in 20% plasma): 32.5% | % Activity of Insulin ([3]; incubated 9 hr in 20% plasma): 41.1% | % Activity of Insulin ([3]; incubated […] in 20% plasma): 43.2% | blood glucose (differential AUC vs vehicle, 8 hr) (C57/Blk mice; 90 nmol/kg): little change in glucose | blood glucose (differential AUC vs vehicle, 8 hr) (C57/Blk mice; 270 nmol/kg): glucose lowering

I: X1-GPEHLCGAHLVDALYLVCGDRGFY-NH2 / II: H-GIVDECCFRSCDLRRLEN[Phe(4-NH2)]CN-OH (disulfide I:6-II:7, I:18-II:20, II:6-II:11) [Unpegylated pNH2F, B^1Aoa2(H5, H10,Y16,L17)25a: A^1(pNH2—F19, N18, N21]
% (of insulin) [4]: 48% | % (of insulin) [5]: 81%
